Laboratory results published in US20050085454A1, “Phenolic antioxidant-chromium complexes for treatment or prevention of type 2 diabetes or glucose intolerance” (NATREON INC., priority 2003, published 2005).

Experiments:
[1] = system: patients with NIDDM; details: oral administration; cited from earlier work
[2] = system: patients with coronary heart disease; details: 60 mg twice daily oral, after 8 weeks; cited from earlier work
[3] = system: rats with diabetes induced by chemical destruction of β-cells; details: 1% taurine in the drinking water; cited from earlier work
[4] = system: STZ-induced diabetic rats; experiment: Repairing damaged β-cells: treatment of STZ-induced diabetic rats for further 21 days; type: in vivo
Method: In another set of experiments, STZ-induced diabetic rats, after 21 days, were administered the invention test complex compounds: S-1 (50 mg/Kg, p.o.), S-2 (100 mg/Kg, p.o.), Chromium picolinate (100 mg/Kg, p.o.), Example-1A (100 mg/Kg., p.o.), per day for further 21 days. This experiment was conducted with a view to assessing the repair aspect of the damaged β-cells by the test compounds.

[5] = Effects on animal body weight in STZ-induced hyperglycemia; type: in vivo; details: STZ-treated rats, 100 mg/Kg oral
[6] = system: Steptozocine(STZ)-induced male Wistar rats; experiment: Effect of high doses of the inventive complex, blood sugar over 21 days; type: in vivo; details: 100 mg/Kg oral (S-2: Cr3+ 1,000 μg/Kg; chromium picolinate: Cr3+ 700 μg/Kg), concurrently with STZ 40 mg/Kg s.c.
[7] = system: Steptozocine(STZ)-induced male albino rats; experiment: Screening of antidiabetic activity, blood sugar lowering action; type: in vivo; details: 300 μg/Kg oral, 48 hr after STZ
[8] = system: GK rat; details: Vitamin E supplementation; cited from earlier work
[9] = system: obese Zucker rat; details: dietary Vitamin E; cited from earlier work

## O=C(O)CCCC[C@@H]1CCSS1 (racemic) [lipoic acid]
[1]
  insulin-mediated glucose uptake: significantly increased

## COC1=C(OC)C(=O)C(C/C=C(\C)CC/C=C(\C)CC/C=C(\C)CC/C=C(\C)CC/C=C(\C)CC/C=C(\C)CC/C=C(\C)CC/C=C(\C)CC/C=C(\C)CCC=C(C)C)=C(C)C1=O [coenzyme Q10]
[2]
  plasma levels of insulin (fasting and 2-hr), glucose, and lipid peroxides, as compared to the control group: reduced

## NCCS(=O)(=O)O [taurine]
[3]
  renal oxidant injury: reduced

## Chromium picolinate
[4]; 100 mg/Kg p.o. per day for 21 days, started 21 days after STZ, day 21 vs day 1
  % Change from day 1 (glucose): +14 ↑ %
[4]; 100 mg/Kg p.o. per day, started 21 days after STZ, day 1
  Glucose (mg/dl) values; mean ± SE, day 1: 253.2 ± 7.7 mg/dL
[4]; 100 mg/Kg p.o. per day, started 21 days after STZ, day 7
  Glucose (mg/dl) values; mean ± SE, day 7: 302.8 ± 18.0 mg/dL
[4]; 100 mg/Kg p.o. per day, started 21 days after STZ, day 14
  Glucose (mg/dl) values; mean ± SE, day 14: 294.3 ± 20.4 mg/dL
[4]; 100 mg/Kg p.o. per day, started 21 days after STZ, day 21
  Glucose (mg/dl) values; mean ± SE, day 21: 289.6 ± 9.0 mg/dL
[4]; diabetic rats treated p.o. for 21 days
  effect on progressive increase in hyperglycemia (post STZ-treatment): no beneficial effect
[5]; day 1
  Body Weight in gm, day 1: 166 ± 8 gm
[5]; day 7
  Body Weight in gm, day 7: 180 ± 7 gm
[5]; day 14
  Body Weight in gm, day 14: 168 ± 9 gm
[5]; day 21
  Body Weight in gm, day 21: 172 ± 9 gm
[6]; day 7
  Blood Sugar Values (Arterial Blood), day 7: 88.7 ± 4.4
[6]; day 14
  Blood Sugar Values (Arterial Blood), day 14: 94.3 ± 7.2
[6]; day 21
  Blood Sugar Values (Arterial Blood), day 21: 92.5 ± 3.5

## Chromium polynicotinate [Example N-7]
[7]; 3 days before and 2 days after STZ 50 mg/Kg i.v., 18 hr fasting
  Fasting Serum Glucose (mg/dl) (mean ± SEM): 141.30 ± 9.54 mg/dL
[7]; 3 days before and 2 days after STZ
  % Inhibition (of fasting serum glucose vs STZ): 58.25%

## Vitamin E
[8]
  glycemic control: significantly improved
[9]
  glucose-stimulated hyper-insulinemia and lipid peroxidation: significantly reduced
